# Source: patent US6384043B1, “Methods of alleviating pain sensations of the denuded eye with opioid analgesics” (priority 1993, dated 2002)
# Counter-ions that a name gives are not always drawn. Like-named read-outs stand apart in the source and are kept apart here.
# What was measured:
# [1] = test system: corneal epithelial cell regeneration in pigmented rabbits; assay: Toxicity test: corneal re-epithelialization (wound healing) after mechanical removal of epithelial cells; settings: for Animals with complete healing of the cornea / total animals per group: 2 drops at 4 hourly intervals for 6 days
# Description: Healthy pigmented rabbits weighing about 1.5-2.2 kg were anesthetized and then corneal epithelial cells were scraped and removed using a blade under direct view of a microscope. The basal lamina was left intact while thorough de-epithelialization was performed and confirmed by staining the surface of the cornea with 1% fluorescein. […] Eyes in each group were instilled with two drops of the corresponding solution at 4 hourly intervals for 6 consecutive days. Wound healing (corneal re-epithelialization) was assessed on days 2, 3, 4, 5, 6, 7, and 8 following corneal abrasion using fluorescein staining with Fluor-I-Strip, and epithelial regeneration and migration were monitored by clinical examinations as well as wound surface area measurements.
# [2] = test system: pupil of morphine-dependent subject; settings: applied topically to one eye of a morphine-dependent subject; cited from earlier work
# [3] = test system: corneal sensitivity of patients with corneal abrasion or after a refractive procedure; settings: 2 drops topical, morphine 0.5 mg/ml, mean ± SEM
# Description: The following describes analgesic tests which were performed on patients following topical application of the prepared and previously described topical ophthalmic analgesic formulation. […] Five patients were selected to participate in this study. In all cases, three measurements were made in the following fashion: First, a baseline response (corneal sensitivity) was established by determining the response of the patient eye to a standard pain pressure using a Cochet Bonnet Aesthesiometer instrument and without applying any drug. Measurements were made by beginning with the nylon monofilament (0.12 mm diameter) fully extended. The tip was applied perpendicularly to the corneal surface and gently pressed until the fiber's first visible bending. […] The length was then recorded in units of mm. Second, a saline solution (2 drops) were instilled in the eye and at 10 and 20 minutes later the response of the patient's cornea to pain pressure was determined as described above. These repeated measurements served as a placebo effect for comparison purposes.
# Again, an Aesthesiometer, based upon the principle of pressure transmitted axially by a nylon monofilament of known diameter but of variable length for a given bending stress, was applied to the corneal surface. […] The distance, in millimeters (mm) of the nylon monofilament is recorded and then converted to pressure in gram/square millimeter.
# [4] = test system: pain scores following knee surgery; settings: applied locally inside the joints following knee surgery; cited from earlier work
smiles,measurement,setting,value
"CCCOc1ccc(C(=O)OCCN(CC)CC)cc1N [Alcaine, proparacaine HCl]",Complete regeneration / wound healing by,"[1]; pigmented, rabbit, in vivo",≤ 8 days
same,Day on which eyes began to show epithelial regeneration,"[1]; rabbit, in vivo",third day
same,Effect of repeated topical application on corneal epithelial cell regeneration and migration,"[1]; rabbit, in vivo",significantly prevented regeneration
C=CCN1CC[C@]23c4c5ccc(O)c4O[C@H]2C(=O)CC[C@@]3(O)[C@H]1C5 [naloxone],Effect on pupil of the same eye,[2],pupillary dilation
"CN1CC[C@]23c4c5ccc(O)c4O[C@H]2[C@@H](O)C=C[C@H]3[C@H]1C5.O=S(=O)(O)O [Morphine, morphine sulphate]",Animals with complete healing of the cornea / total animals per group,[1]; day 1,0/6
same,Animals with complete healing of the cornea / total animals per group,[1]; day 2,0/6
same,Animals with complete healing of the cornea / total animals per group,[1]; day 3,0/6
same,Animals with complete healing of the cornea / total animals per group,[1]; day 4,1
same,Animals with complete healing of the cornea / total animals per group,"[1]; day 4, sulphate",1/6
same,Animals with complete healing of the cornea / total animals per group,"[1]; day 5, sulphate",3/6
same,Animals with complete healing of the cornea / total animals per group,[1]; day 6,4/6
same,Animals with complete healing of the cornea / total animals per group,"[1]; day 7, sulphate",5/6
same,Animals with complete healing of the cornea / total animals per group,[1]; day 8,5/6
same,Corneal sensitivity expressed as pressure,[3]; 10 min after treatment,7.69 ± 2.16 grm/sq. mm
same,Corneal sensitivity expressed as pressure,[3]; 20 min after treatment,9.84 ± 1.00 grm/sq. mm
same,Effect on pain scores,[4],significantly reduced pain scores
same,Time to maximal effect,[4],3 to 6 h
